Patent US12232496B2, “Methods and system for stimulating root exudation in plants” (YEDA RESEARCH AND DEVELOPMENT CO. LTD, priority 2018, dated 2025)

Tested on: Catharanthus roseus
Assay: Split-root Catharanthus roseus seedlings: Root A stimulated, exudates analysed by MRM-LC-MS/MS
Assay type: in vivo
Conditions: applied to Root A; Root B exudate a week after stimulation; FIG. 16B
Description: Split roots are generated by cutting off the primary root. Lateral roots are then regenerated until they are long enough for the lateral roots to be placed directly in separate hydroponics or aeroponics containers. Each container is fed with plant medium.
Catharanthus roseus were grown, and split roots were obtained using the methods of Example 2. After lateral roots emerged, roots were aseptically placed separately in two 20 ml glass containers containing 0.5× Hoagland nutrient solution. Similar to Example 8, Root A of seedlings was stimulated with methyl-jasmonate, while growing in hydroponics using plant nutrient medium. Plants were incubated at 24° C. with a photoperiod of 16 h. A week after stimulation, the plant medium containing exudates from Root A and B were collected, filtered and extracted for LC-MS analysis. FIG. 16A depicts the MRM-LC-MS/MS analysis of C. roseus exudates. Vinca alkaloids present in the exudates of Root B after methyl jasmonate stimulation (FIG. 16A, top) and control plants (FIG. 16A, bottom) were analyzed via total ion current chromatograms. The quantification of three vinca alkaloids (19S-Vindolinine_RT_3.93, Vindolinine_RT_4.96, and Catarantine_11.77) was performed using an external standard curve of these three metabolites (FIG. 16B). […]

CC/C=C\CC1C(=O)CCC1CC(=O)OC (stereo not shown) [Methyl jasmonate, methyl jasmonate]
Vindolinine found in Root B exudate of treated plants, fold increase: up to 32 ×
